Measured values as given in patent US12509438B2, “Pyrazole derivative” (Aptabio Therapeutics Inc., priority 2020, dated 2025).

How the values were obtained:
LX-2 cells = assay: ROS production in LX-2 cells (L-012 or DCF-DA); format: cell-based, human; conditions: FIG. 1
From the text: (§1) In order to confirm an effect of the synthetic example compounds on ROS production from fibroblasts and specific substrate cells, ROS production was induced by stimulation of PMA (phorbol 12-myristate 13-acetate), TGF-β1, palmitate or high concentration-glucose, or the like for HL-60 cells (Korean Cell Line Bank), NHLF(normal human lung fibroblast, Lonza), LX-2 (human hepatic stellate cells, Sigma), ARPE19 (human retinal pigment epithelial cell, ATCC), KEL-FIB (Keloid fibroblast, ATCC) cells differentiated into neutrophil cells by treatment of DMSO, and the inhibitory effect of ROS production of the synthetic example compounds was observed under this condition.
(§2) NHLF (normal human lung fibroblast, Lonza), LX-2 (human hepatic stellate cells, Sigma), ARPE19 (human retinal pigment epithelial cell, ATCC), KEL-FIB (keloid fibroblast, ATCC) cells were suspended in a culture medium comprising 10% FBS and aliquoted in a 96 well plate, and then cultured under the condition of 5% CO2, 37° C. for 24 hours. The synthetic example compound was pretreated from 30 minutes to 1 hour, and then a ROS stimulus was treated to each well comprising cells and a drug. After additional culturing for 48 hours, the level of ROS production was confirmed by using L-012 or DCF-DA.

NHLF cells = assay: ROS production in NHLF cells (L-012 or DCF-DA); format: cell-based, human; conditions: FIG. 1
From the text: as §1, §2

αSMA [1] = assay: Expression of αSMA induced by TGF-β1 in ARPE19 cells (immunocytochemistry); format: cell-based, human; conditions: compound 5 μM, TGF-β1 10 ng/ml, FIG. 3a/3b
From the text: (§3) In order to confirm whether the synthetic example compound of the present invention affects differentiation of fibroblasts into myofibroblasts, the inhibitory effect of the synthetic example compound for increasing expression of αSMA (a biomarker for confirming differentiation into myofibroblasts) induced by TGF-β1 for HL-60 cells (Korean Cell Line Bank), HFF-1 (human foreskin fibroblast, ATCC), NHLF (normal human lung fibroblast, Lonza), LX-2 (human hepatic stellate cells, Sigma), ARPE19 (human retinal pigment epithelial cell, ATCC), KEL-FIB (Keloid fibroblast, ATCC) cells was to be observed.
Each cell was suspended in a DMEM medium comprising 10% FBS and aliquoted on a 4-well chamber slide (Nunc) at a concentration of 1×10^4 cells/well, and the synthetic example compound and TGF-β1(TGF 131, TGF-β are all same meanings) were treated to prepare cells to be used for confirmation of αSMA expression. […] After performing fixation with 4% paraformaldehyde for 10 minutes and permeabilization using 0.1% Triton x-100 for the cells, the process of treating a primary antibody (anti-αSMA Ab, 1:200, at 4° C. for 16 hours) and a secondary antibody (Alexa-594 conjugated Ab, 1:800, at a room temperature for 1 hour) against αSMA was progressed sequentially, and then the level of expression of αSMA was observed by using a fluorescence microscope. […]

αSMA [2] = assay: Expression of αSMA induced by TGF-β1 in HFF-1 cells (immunocytochemistry); format: cell-based, human; conditions: compound 5 μM, TGF-β1 10 ng/ml, FIG. 3a/3b
From the text: as §3
(§4) Each cell was suspended in a DMEM medium comprising 10% FBS and aliquoted on a 4-well chamber slide (Nunc) at a concentration of 1×10^4 cells/well, and the synthetic example compound and TGF-β1(TGF 131, TGF-β are all same meanings) were treated to prepare cells to be used for confirmation of αSMA expression. […] After performing fixation with 4% paraformaldehyde for 10 minutes and permeabilization using 0.1% Triton x-100 for the cells, the process of treating a primary antibody (anti-αSMA Ab, 1:200, at 4° C. for 16 hours) and a secondary antibody (Alexa-594 conjugated Ab, 1:800, at a room temperature for 1 hour) against αSMA was progressed sequentially, and then the level of expression of αSMA was observed by using a fluorescence microscope.

αSMA [3] = assay: Expression of αSMA induced by TGF-β1 in LX-2 cells (immunocytochemistry); format: cell-based, human; conditions: compound 5 μM, TGF-β1 10 ng/ml, FIG. 3a/3b
From the text: as §3, §4

αSMA [4] = assay: Expression of αSMA induced by TGF-β1 in NHLF cells (immunocytochemistry); format: cell-based, human; conditions: compound 5 μM, TGF-β1 10 ng/ml, FIG. 3a/3b
From the text: as §3, §4

αSMA [5] = assay: Expression of αSMA induced by TGF-β1 in KEL-FIB cells (immunocytochemistry); format: cell-based; conditions: compound 5 μM, TGF-β1 10 ng/ml, FIG. 3a/3b
From the text: as §3, §4

N27 cells = assay: ROS production induced by MPP+ in N27 dopaminergic nerve cells (DCF-DA); format: cell-based, rat; conditions: compound 1 μM, 24 hours, FIG. 4
From the text: The high ROS level in nerve cells induces oxidized lipids, and this is known as an important element for nerve cell death. In order to confirm the effect of the synthetic example compound on ROS production from dopaminergic nerve cells, ROS production was induced by stimulation of MPP+(1-methyl-4-phenylptridinium) for N27 (rat dopaminergic neural cell, Sigma) cells, and the inhibitory effect of ROS production of the synthetic example compound was observed under this condition.
N27 cells were cultured in a RPMI medium comprising 10% FBS, […], and the cultured cells were aliquoted in a 6 well plate at a concentration of 5×10^3˜6×10^3 cells/well. The ROS production stimuli, MPP+ (1-methyl-4-phenylptridinium) and Synthetic example compound 3 (1 μM) were treated into the cells. In 24 hours after treating the synthetic example compound, by measuring fluorescence of each well using DCF-DA, the ROS production level was confirmed.

CTGF gene = CTGF gene expression induced by TGF-β1 in KEL-FIB keloid fibroblasts (qRT-PCR); format: cell-based; conditions: KEL-FIB cells; 5 μM or 10 μM compound; 2 ng/ml TGF-β1; 24 or 48 hours
Method: (§5) In order to confirm the effect on the process of producing extracellular matrix from keloid fibroblasts of the synthetic example compound, the expression change of an extracellular matrix formation promoting factor, CTGF and a representative extracellular matrix, collagen type I according to treatment of the Synthetic example 3 compound for KEL-FIB (keloid fibroblast) cells was analyzed at a gene level.
(§6) The KEL-FIB cell line was adapted in a DMEM comprising 2% FBS for 24 hours and then the Synthetic example 3 compound at a concentration of ? 5 μM or 10 μM was pretreated for 1 hour. For inducing expression of CTGF and collagen type I genes, 2 ng/ml TGF-β1 was treated and mRNA was extracted from the cells after 24 or 48 hours. The presence of mRNA and expression level of CTGF and collagen type 1 genes were confirmed by qRT-PCR (Quantitative real-time PCR).

collagen type I gene = assay: Collagen type I gene expression induced by TGF-β1 in KEL-FIB keloid fibroblasts (qRT-PCR); format: cell-based; conditions: KEL-FIB cells; 5 μM or 10 μM compound; 2 ng/ml TGF-β1; 24 or 48 hours
Method: as §5, §6

IL-1β [6] = assay: Expression of IL-1β induced by LPS in LX-2 cells (RT-PCR); format: cell-based, human; conditions: 30 min pretreatment, LPS 6 hours, FIG. 5
Method: (§7) After inoculating a 2×10^5 number of cells in a 6 well plate and culturing for 24 hours and then further culturing in a culture solution without serum for 16 hours, the Synthetic example 3 compound was pretreated according to each condition for 30 minutes and inflammation reaction was induced by LPS for 6 hours. The expression of IL-1β was confirmed by using RT-PCR. The total RNA was separated from the cells by using RNeasy mini kit (Qiagen) and from the separated RNA 2 ug, cDNA was synthesized by using PrimeScript™ II 1st strand cDNA synthesis kit (TaKaRa) and then PCR was performed by AccuPower® PCR PreMix (Bioneer) to amplify genes. The sequence for target primers is as follows. IL-1β (forward: 5′-[…]-3′, reverse: 5′-[…]-3′); GAPDH (forward: 5′-[…]-3′, reverse: 5′-[…]-3′); β-actin (forward: 5′-[…]-3′, reverse: 5′-[…]-3′). The PCR product was confirmed by electrophoresis in 1.5% agarose gel.

IL-1β [7] = assay: Expression of IL-1β induced by LPS in NHLF cells (RT-PCR); format: cell-based, human; conditions: 30 min pretreatment, LPS 6 hours, FIG. 5
Method: as §7

## Oc1c2c(nn1-c1ccccn1)CN(Cc1ccccc1)CC2 [Synthetic example 3, 6-benzyl-2-(pyridin-2-yl)-4,5,6,7-tetrahydro-2H-pyrazolo[3,4-c]pyridin-3-ol]
LX-2 cells
  inhibition of ROS production induced by PMA: inhibited ROS production
NHLF cells
  inhibition of ROS production induced by PMA: inhibited ROS production
αSMA [1]
  inhibition of increase of expression of αSMA induced by TGF-β1: significantly inhibited
αSMA [2]
  inhibition of increase of expression of αSMA induced by TGF-β1: significantly inhibited
αSMA [3]
  inhibition of increase of expression of αSMA induced by TGF-β1: significantly inhibited
αSMA [4]
  inhibition of increase of expression of αSMA induced by TGF-β1: significantly inhibited
αSMA [5]
  inhibition of increase of expression of αSMA induced by TGF-β1: significantly inhibited
N27 cells
  inhibition of ROS production induced by MPP+: inhibiting production of ROS
CTGF gene
  inhibition of expression of the CTGF gene: 76%
Collagen type I gene
  inhibition of expression of the collagen type I gene: 75%
IL-1β [6]
  inhibition of IL-1β induced by LPS: effectively inhibited in a concentration-dependent manner
IL-1β [7]
  inhibition of IL-1β induced by LPS: effectively inhibited in a concentration-dependent manner
